These results are taken from US10913728B2, “O-substituted hydroxamic acids” (The Johns Hopkins University, priority 2016, dated 2021).

Marks after values point to notes of the source that are not given here.

A short description of data set [1]: Nitroxyl production via N2O quantification in the headspace (GC), relative to Angeli's salt standard. It is filed as physicochemical. Also noted: key to % HNO: Stable. The settings on record: for % HNO: N2O yield relative to AS standard, phosphate buffer with DTPA, 37° C. An excerpt: Nitrous oxide (N2O) is produced via the dimerization and dehydration of HNO, and is the most common marker for nitroxyl production (Fukuto et al., Chem. Res. Toxicol. 18:790-801 (2005)). […] Using either nitrous oxide gas or Angeli's salt (“AS”) as a standard, the relative amounts of N2O released from compounds of the disclosure is examined via gas chromatography (“GC”) headspace analysis.
Another procedure for determining N2O released from compounds of the disclosure is as follows. A Varian CP-3800 instrument equipped with a 1041 injector, electron capture detector, and a 25 m 5 Å molecular sieve capillary column was applied for the analysis of nitrous oxide (N2O). Grade 5.0 nitrogen was used as both the carrier (8 mL/min) and the make-up (22 mL/min) gas. For all measurements, the column oven temperature was kept constant at 150° C., and the injector oven and the detector oven were held at 200° C. and 300° C., respectively. A 100 μL gastight syringe with a sample-lock was used for all gas injections. Samples were prepared in 6 mL Wheaton Clr headspace vials with volumes pre-measured for sample uniformity (actual vial volume ranges from 5.8-6.3 mL). Vials were charged with 3 mL of phosphate buffer containing the metal chelator, diethylenetriaminepentaacetic acid (DTPA), and fit with rubber septa and 20 mm aluminum seals. The vials were purged with argon and equilibrated for at least 10 minutes at 37° C. in a dry block heater. A stock solution of Angeli's salt (AS) was prepared in 10 mM sodium hydroxide, and compounds of the disclosure (10 mM) were prepared in acetonitrile and used immediately after preparation. 30 μL of the stock solutions was transferred into vials using a gastight syringe, yielding final concentrations of 0.5, 0.1, and 0.02 mM. Substrates were then incubated long enough to ensure complete decomposition and equilibration of N2O with the headspace. Depending on the concentration of the compound of the disclosure, 60 or 20 μL of the headspace was sampled and injected three times using a gastight syringe with a sample lock. The N2O yield was averaged and reported relative to the AS standard.

Data set [2] is described as follows: Stability of NHPY-1 incubated with PY-2 by 1H NMR spectroscopy. Type of data set: physicochemical. The settings on record: 1H NMR spectroscopy at pH 7.4 and 10. The source says: Based on reactivity studies of bis-heteroatom-substituted amides (Glover, S. A. In The Chemistry of Hydroxylamines, Oximes, and Hydroxamic Acids, Part 2; Rappoport, Z., Liebman, J. F., Eds.; John Wiley & Sons: Chichester, West Sussex, 2009, p 839-923), the formation of NHPY-1 may be possible through the direct attack of PY-2 on the amide nitrogen of the hydroxamic acid moiety of […] (Scheme 4).

For data set [3] the following is noted: cited from earlier work.
Data set [4] in a line: UV-Vis protocol: decomposition kinetics, donor half-lives at pH 7.4 and 37° C. The settings on record: buffer, pH 7.4, 37° C. It is filed as physicochemical. Here is the method:
A UV-VIS protocol was used to determine the decomposition kinetics of Compounds 1-5. According to this protocol, decomposition of the test compound was monitored by UV-Vis spectroscopy to measure donor half-lives at pH 7.4 and 37° C. (Guthrie, D. A.; Kim, N. Y.; Siegler, M. A.: Moore, C. D.; Toscano, J. P. J. Am. Chem. Soc. 2012, 134, 1962-1965; and Guthrie, D. A.; Ho, A.; Takahashi, C. G.; Collins, A.; Morris, M.; Toscano, J. P. J. Org. Chem. 2015, 80, 1338-1348).

Data set [5] is described as follows: 1H NMR protocol: decomposition of the compounds and relative product yields in aqueous solution. The settings on record: for Carboxylic Acid relative product yield / NHPY relative product yield / PY (corresponding pyrazolone) relative product yield: decomposition in aqueous solution, 1H NMR. It is filed as physicochemical. The source says: A ^1H NMR spectroscopy protocol was used to examine the decomposition of the compounds of the disclosure and measure the relative product yields in aqueous solution (Guthrie, D. A.; Ho, A.; Takahashi, C. G.; Collins, A.; Morris, M.; Toscano, J. P. J. Org. Chem. 2015, 80, 1338-1348; and Guthrie, D. A.; Nourian, S.; Takahashi, C. G.; Toscano, J. P. J. Org. Chem. 2015, 80, 1349-1356).

Data set [6] is described as follows: 1H NMR mechanistic study: decomposition of Compound 1 in the presence of 3,4-dimethyl-1-phenylpyrazolone (PY-2). It is filed as physicochemical. The settings on record: 0.5 mM compound with 0.5 mM PY-2, 0.25 M phosphate buffer, 0.2 mM DTPA, pH 7.4, 37° C., argon. As for the experimental part:
A ^1H NMR Spectroscopy Protocol was used to confirm the formation of nitroso carbonyls following decomposition of Compound 1. In this protocol, 0.5 mM Compound 1 was incubated in the presence of 0.5 mM 3,4-dimethyl-1-phenylpyrazolone in 0.25 M phosphate buffer with 0.2 mM DTPA at pH 7.4, 80% H2O, 10% D2O, and 10% DMSO-d6 at 37° C. under argon. Spectra were collected at the start of the experiment and after complete decomposition.

Regarding `CC(=O)NOC1(C)C(=O)N(c2ccccc2)N=C1C` (stereo not drawn) [Compound 2, N-((3,4-dimethyl-5-oxo-1-phenyl-4,5-dihydro-1H-pyrazol-4-yl)oxy)acetamide], the “% HNO” value in data set [1] (20 μM compound), in data set [1] (100 μM compound) and in data set [1] (500 μM compound) was “a” in each case.
As usually defined, the pKa is the pH at which an ionisable group is half protonated. Turning to `CON=C(C)C1(N(O)C(C)=O)C(=O)N(c2ccccc2)N=C1C` (stereo not drawn) [NHPY-1, N-hydroxy-N-(4-(1-(methoxyimino)ethyl)-3-methyl-5-oxo-1-phenyl-4,5-dihydro-1H-pyrazol-4-yl)acetamide], the “stability on incubation with PY-2” value in data set [2] is “stability was confirmed”. In addition, in data set [3], the pKa is on record as 10.0.
In the case of `CO/N=C(\C)C1(ONC(=O)OC(C)(C)C)C(=O)N(c2ccccc2)N=C1C` (stereo not drawn) [Compound 5, tert-butyl (4-(1-(methoxyimino)ethyl)-3-methyl-5-oxo-1-phenyl-4,5-dihydro-1H-pyrazol-4-yl)oxycarbamate], the “% HNO” value in data set [1] (20 μM compound) is given as 35^c %; in data set [1] (100 μM compound) it was 26%.
As usually defined, the half-life is the time needed for the level to fall by half in the phase considered. In data set [4], `CO/N=C(\C)C1(ONC(=O)OC)C(=O)N(c2ccccc2)N=C1C` (stereo not drawn) [Compound 3, methyl (4-(1-(methoxyimino)ethyl)-3-methyl-5-oxo-1-phenyl-4,5-dihydro-1H-pyrazol-4-yl)oxycarbamate] showed a half-life of 0.6 min. In addition, the “Carboxylic Acid relative product yield” value in data set [5] is reported as 27. The “NHPY relative product yield” value in data set [5] amounted to 72. The “PY (corresponding pyrazolone) relative product yield” value in data set [5] was found to be 28. The “% HNO” value in data set [1] (20 μM compound) was 41%; in data set [1] (100 μM compound) it was 29%; in data set [1] (500 μM compound), 20%.
As to `CO/N=C(\C)C1(ONC(=O)OC)C(=O)N(C)N=C1C` (stereo not drawn) [Compound 4, methyl (4-(1-(methoxyimino)ethyl)-1,3-dimethyl-5-oxo-4,5-dihydro-1H-pyrazol-4-yl)oxycarbamate], the half-life in data set [4] (UV-Vis spectroscopy) is 1.2 min. In data set [5], the “Carboxylic Acid relative product yield” value was 14, the “NHPY relative product yield” value is reported as 86 and the “PY (corresponding pyrazolone) relative product yield” value was 14. Moreover, the “% HNO” value in data set [1] (20 μM compound) turned out to be 29%. For the same compound, the “% HNO” value in data set [1] (100 μM compound) amounted to 17%. Also, in data set [1] (500 μM compound), the “% HNO” value came out at 8%.
For `CO/N=C(\C)C1(ONC(C)=O)C(=O)N(c2ccccc2)N=C1C` (stereo not drawn) [Compound 1, N-((4-(1-(methoxyimino)ethyl)-3-methyl-5-oxo-1-phenyl-4,5-dihydro-1H-pyrazol-4-yl)oxy)acetamide], the half-life in data set [4] (UV-Vis spectroscopy) came out at 25 min. In addition, in data set [6], the “formation of NHPY-1 upon decomposition” value is reported as “not formed”. For the same compound, the “formation of NHPY-1 upon decomposition” value in data set [6] (listed as Compound I) is recorded as “quantitative”. In addition, in data set [5], the “Carboxylic Acid relative product yield” value is listed as 73, the “NHPY relative product yield” value was 26 and the “PY (corresponding pyrazolone) relative product yield” value is on record as 74. For the same compound, in data set [5] (in the absence of PY-2), the “NHPY-1 yield from decomposition of Compound 1” value came to 26% and the “acetate yield from decomposition of Compound 1” value is reported as 73%. Also, the “% HNO” value in data set [1] (20 μM compound) came out at 91%. Besides, in data set [1] (100 μM compound), the “% HNO” value turned out to be 75%. Further, the “% HNO” value in data set [1] (500 μM compound) was 70%. Further, in data set [1] (in the absence of PY-2), the “HNO yield from decomposition of Compound 1” value is on record as 70%.
